Source: patent publication US20240082279A1, “COMPOSITIONS AND METHODS FOR PREVENTING AND/OR TREATING SCARS” (L'Oreal, priority 2022, published 2024)

Columns and labels:
Type in all cases: cell-based, human
[1] = system: laser wounded reconstructed skin (SoftSkin™); assay: H&E histology of laser wounded reconstructed skin (SoftSkin™); conditions: SoftSkin™ model after CO2 laser; 10 uL working solution topically every 24 hours, Day 0 to Day 2; sections Day 0, 2, 4; FIG. 2
Description: (§1) Surgical skin samples were be taken from adults and subjected to the 0.25% trypsin dermis/epidermis separation method described in Rheinwald to obtain suspensions of normal human keratinocytes (NHK) and dermal fibroblasts. See Rheinwald J. G., Green H.: Serial cultivation of strains of human epidermal keratinocytes: The formation of keratinizing colonies from single cells. Cell. 6(3):331-43. 1975. The separated normal human dermal fibroblasts were cultured in DMEM+10% fetal calf serum. The fibroblasts were cast onto a lower layer of proto-SoftSkin™ gel. A full-thickness dermal layer equivalent was obtained after contraction of a mixture of Collagen Type I and human normal fibroblasts. The separated normal human keratinocyte cell cultures were initiated using the 3T3 feeder-layer technique described in Rheinwald J. G., Green H.: Epidermal growth factor and the multiplication of cultured human epidermal keratinocytes. Nature 265:421-424 (1977). The separated normal human keratinocytes were seeded on a lattice on the top layer of a proto-SoftSkin™ gel and the culture was left for 7 days in submerged conditions at 37° C. in the presence of 5% carbon dioxide in MEM containing 10% fetal calf serum, allowing the cells to proliferate and form an epidermal layer. Then, the culture was raised upwards to air-liquid interface for an additional 7 days to grow reconstructed skin models (SoftSkin™). […]

DKK-1 = DKK-1 secretion, Luminex Assay of medium supernatant from reconstructed skin; conditions: 3% in 3% propylene glycol, day 1 SoftSkin™ after CO2 laser, vs laser alone, laser+vehicle, untreated control
Description: Surgical skin samples were be taken from adults and subjected to the 0.25% trypsin dermis/epidermis separation method described in Rheinwald to obtain suspensions of normal human keratinocytes (NHK) and dermal fibroblasts. See Rheinwald J. G., Green H.: Serial cultivation of strains of human epidermal keratinocytes: The formation of keratinizing colonies from single cells. Cell. 6(3):331-43. 1975. The separated normal human dermal fibroblasts were cultured in DMEM+10% fetal calf serum. The fibroblasts were cast onto a lower layer of proto-SoftSkin™ gel. A full-thickness dermal layer equivalent was obtained after contraction of a mixture of Collagen Type I and human normal fibroblasts. The separated normal human keratinocyte cell cultures were initiated using the 3T3 feeder-layer technique described in Rheinwald J. G., Green H.: Epidermal growth factor and the multiplication of cultured human epidermal keratinocytes. Nature 265:421-424 (1977). The separated normal human keratinocytes were seeded on a lattice on the top layer of a proto-SoftSkin™ gel and the culture was left for 7 days in submerged conditions at 37° C. in the presence of 5% carbon dioxide in MEM containing 10% fetal calf serum, allowing the cells to proliferate and form an epidermal layer. Then, the culture was raised upwards to air-liquid interface for an additional 7 days to grow reconstructed skin models (SoftSkin™).
The reconstructed skin samples derived from normal human dermal fibroblasts and normal human keratinocytes were subjected to CO2 laser treatment. […]
Medium supernatant was collected from the reconstructed skin samples. DKK-1 secretions were measured using a Luminex Assay (R&D Systems) in a panel following the manufacturer's guidelines. […]
Each experiment in Examples 2-5 was replicated three times. For immunostaining study, one cryosection per replicate and 4 fluorescence images/section were taken for data analysis. All the data were statistically analyzed by Graph Pad Prism and presented as mean±standard deviation unless otherwise specified. […]

Filaggrin = Filaggrin immunofluorescence staining in laser wounded reconstructed skin; conditions: 3% in 3% propylene glycol, Day 2 SoftSkin™ after CO2 laser, vs laser alone, laser+vehicle and untreated control, FIG. 4
Description: as §1

Ki67 = Ki67 immunofluorescence staining in laser wounded reconstructed skin; conditions: 3% in 3% propylene glycol, Day 2 SoftSkin™ after CO2 laser, vs laser alone, laser+vehicle and untreated control, FIG. 6
Description: as §1

α-SMA = α-SMA ELISA of lysed reconstructed skin tissue; conditions: 3% in 3% propylene glycol, Day 2 SoftSkin™ after CO2 laser, vs laser treated tissues not further treated, FIG. 8
Description: Surgical skin samples were be taken from adults and subjected to the 0.25% trypsin dermis/epidermis separation method described in Rheinwald to obtain suspensions of normal human keratinocytes (NHK) and dermal fibroblasts. See Rheinwald J. G., Green H.: Serial cultivation of strains of human epidermal keratinocytes: The formation of keratinizing colonies from single cells. Cell. 6(3):331-43. 1975. The separated normal human dermal fibroblasts were cultured in DMEM+10% fetal calf serum. The fibroblasts were cast onto a lower layer of proto-SoftSkin™ gel. A full-thickness dermal layer equivalent was obtained after contraction of a mixture of Collagen Type I and human normal fibroblasts. […]
Punched Day 2 normal human tissue cultures tissues were submerged with Tissue Lysis Buffer (R&D Systems) and cryogenically ground 3 times, and further lysed on ice for 30 minutes. […] Aliquots of the supernatant were removed and stored at −80° C. until assayed. α-SMA concentration in ECM was determined using a BCA protein array kit (Absin, abs9232-500) and normalized before ELISA assay (alpha SMA Human ELISA Kit #Abcam, ab240678). […]
Each experiment in Examples 2-5 was replicated three times. For immunostaining study, one cryosection per replicate and 4 fluorescence images/section were taken for data analysis. […]

CC(O)C[C@@H]1OC[C@@H](O)[C@H](O)[C@H]1O (stereo partly drawn) [Hydroxypropyl tetrahydropyrantriol, C13-D-xylopyranoside2-hydroxypropane]
Keratinocyte invasion of laser dermal injury sites (H&E stained cross-sections) [1]: Keratinocytes invaded laser dermal injury sites | DKK-1 secretion/expression (DKK-1; FIG. 7): enhanced expression of DKR-1 | DKK-1 secretion/expression (DKK-1; FIG. 7, listed as C-glycoside): restored DKK-1 secretion to a level similar to control | DKK-1 secretion/expression (DKK-1; FIG. 7, listed as Proxylane): enhancing the expression of DKK-1 | Filaggrin expression (relative fluorescence intensity, Image J) (Filaggrin): increased Filaggrin expression | Filaggrin expression (relative fluorescence intensity, Image J) (Filaggrin; listed as C-glycoside): significantly higher level | Ki67 expression (ratio of Ki67 positive cells/total cell number in basal layer) (Ki67): increased Ki67 expression | Ki67 expression (ratio of Ki67 positive cells/total cell number in basal layer) (Ki67; listed as C-glycoside): significantly higher level | α-SMA expression (α-SMA): reduced α-SMA expression in a statistically significant manner | α-SMA expression (α-SMA; listed as C-glycoside): reduced the level of α-smooth muscle actin in laser wounded skin in a statistically significant manner

hyaluronic acid [reference compound]
Keratinocyte invasion of laser dermal injury sites (H&E stained cross-sections) [1]: not
